Measured values: paper PMC5431190, “Investigation of cationicity and structure of pseudin-2 analogues for enhanced bacterial selectivity and anti-inflammatory activity” (Scientific Reports, 2017)
Converted amounts (≈) assume the structure as drawn. Residues, ends and D or L forms follow the SMILES beside them.

Columns and labels:
[1] = tested on: S. aureus 3126(R) (MRSA 3126); format: cell-based, Staphylococcus aureus; details: multidrug-resistant strain; 1% peptone media, 16 h at 37 °C
[2] = tested on: S. aureus 3108(R) (MRSA 3108); format: cell-based, Staphylococcus aureus; details: multidrug-resistant strain; 1% peptone media, 16 h at 37 °C
[3] = tested on: S. aureus 3089(R) (MRSA 3089); format: cell-based, Staphylococcus aureus; details: multidrug-resistant strain; 1% peptone media, 16 h at 37 °C
[4] = tested on: human red blood cells (hRBCs); assay: Haemolytic activity; format: cell-based; details: red cells of human, 1 h
Method: Peptide-induced lysis of human red blood cells (hRBCs) was determined as follows. Fresh hRBCs were washed 2–3 times with phosphate-buffered saline (PBS) by centrifugation for 5 min at 2500 rpm at 4 °C. Peptides in PBS were incubated with 4% (v/v) hRBCs for 1 h at 37 °C. Samples were then centrifuged for 5 min at 1000 × g. The absorbance of the supernatant at 405 nm was used as a measure of haemolysis. As a positive control, 100% haemolysis was obtained by treating hRBCs with 0.1% Triton X-100.

[5] = tested on: Salmonella typhimurium KCTC 1926; format: cell-based; details: KCTC 1926, 16 h
Excerpt: (§1) Four Gram-negative bacteria species (Escherichia coli KCTC 1682, Acinetobacter baumannii KCTC 2508, Pseudomonas aeruginosa KCTC 1637 and Salmonella typhimurium KCTC 1926) and three Gram-positive bacteria species (Staphylococcus aureus KCTC 1621, Bacillus subtilis KCTC 3028 and Staphylococcus epidermidis KCTC 1917) were procured from the Korean Collection for Type Cultures (KCTC). Multi-drug-resistant Gram-negative bacteria (Salmonella typhimurium CCARM 8003 and 8007, Escherichia coli CCARM 1229 and 1238, Pseudomonas aeruginosa CCARM 2002 and 2095 and Acinetobacter baumannii CCARM 12035 and 12036) were obtained from the Culture Collection of Antibiotic-Resistant Microbes (CCARM). To determine MICs, bacteria were cultured in Luria-Bertani (LB) medium for overnight at 37 °C. An aliquot of the culture was incubated in 1% peptone media at 37 °C until mid-log phase. 100 μl of serial 2-fold diluted peptides were treated in 96 well plates and added to 100 μl of 2 × 10^6 CFU/ml bacterial suspensions in 1% peptone media for 16 h at 37 °C.

[6] = tested on: Salmonella typhimurium CCARM 8003 (MDRST 8003); format: cell-based; details: multidrug-resistant strain; 1% peptone media, 16 h at 37 °C
Excerpt: as §1

[7] = tested on: Pseudomonas aeruginosa CCARM 2002 (MDRPA 2002); format: cell-based; details: multidrug-resistant strain; 1% peptone media, 16 h at 37 °C
Excerpt: as §1

[8] = tested on: Escherichia coli KCTC 1682; format: cell-based; details: KCTC 1682, 16 h
Excerpt: as §1

[9] = tested on: Acinetobacter baumannii CCARM 12036 (MDRAB 12036); format: cell-based; details: multidrug-resistant strain; 1% peptone media, 16 h at 37 °C
Excerpt: as §1

[10] = tested on: Escherichia coli CCARM 1238 (MDREC 1238); format: cell-based; details: multidrug-resistant strain; 1% peptone media, 16 h at 37 °C
Excerpt: as §1

[11] = tested on: Acinetobacter baumannii KCTC 2508; format: cell-based; details: KCTC 2508, 16 h
Excerpt: as §1

[12] = tested on: Escherichia coli CCARM 1229 (MDREC 1229); format: cell-based; details: multidrug-resistant strain; 1% peptone media, 16 h at 37 °C
Excerpt: as §1

[13] = tested on: Bacillus subtilis KCTC 3028; format: cell-based; details: KCTC 3028, 16 h
Excerpt: as §1

[14] = tested on: Salmonella typhimurium CCARM 8007 (MDRST 8007); format: cell-based; details: multidrug-resistant strain; 1% peptone media, 16 h at 37 °C
Excerpt: as §1

[15] = tested on: Pseudomonas aeruginosa KCTC 1637; format: cell-based; details: KCTC 1637, 16 h
Excerpt: as §1

[16] = tested on: Staphylococcus epidermidis KCTC 1917; format: cell-based; details: KCTC 1917, 16 h
Excerpt: as §1

[17] = tested on: Acinetobacter baumannii CCARM 12035 (MDRAB 12035); format: cell-based; details: multidrug-resistant strain; 1% peptone media, 16 h at 37 °C
Excerpt: as §1

[18] = tested on: Pseudomonas aeruginosa CCARM 2095 (MDRPA 2095); format: cell-based; details: multidrug-resistant strain; 1% peptone media, 16 h at 37 °C
Excerpt: as §1

[19] = tested on: Gram-positive bacteria (S. aureus, B. subtilis, S. epidermidis); format: cell-based; details: 16 h
Excerpt: as §1

[20] = tested on: Staphylococcus aureus KCTC 1621; format: cell-based; details: KCTC 1621, 16 h
Excerpt: as §1

[21] = tested on: Gram-negative bacteria (E. coli, A. baumannii, P. aeruginosa, S. typhimurium); format: cell-based; details: 16 h
Excerpt: as §1

Compound | MIC, MRSA 3126 [1] | MIC, MRSA 3108 [2] | MIC, MRSA 3089 [3] | MHC (minimal peptide concentration that produces haemolysis) [4] | MIC, S. typhimurium [5] | MIC, MDRST 8003 [6] | MIC, MDRPA 2002 [7] | MIC, E. coli [8] | MIC, MDRAB 12036 [9] | MIC, MDREC 1238 [10] | MIC, A. baumannii [11] | MIC, MDREC 1229 [12] | MIC, B. subtilis [13] | MIC, MDRST 8007 [14] | MIC, P. aeruginosa [15] | MIC, S. epidermidis [16] | MIC, MDRAB 12035 [17] | MIC, MDRPA 2095 [18] | Average MIC, Gram-positive [19] | MIC, S. aureus [20] | further results
CC[C@H](C)[C@H](NC(=O)CNC(=O)[C@H](CCC(N)=O)NC(=O)[C@H](Cc1ccccc1)NC(=O)[C@@H](NC(=O)[C@H](CCCCN)NC(=O)[C@H](CCCCN)NC(=O)[C@H](CC(C)C)NC(=O)[C@H](C)NC(=O)[C@H](CC(N)=O)NC(=O)[C@H](CC(C)C)NC(=O)CN)C(C)C)C(=O)N[C@@H](Cc1c[nH]cn1)C(=O)N[C@@H](CCC(=O)O)C(=O)N[C@@H](C)C(=O)N[C@H](C(=O)N[C@@H](CCCCN)C(=O)N[C@@H](CCCCN)C(=O)N[C@H](C(=O)N[C@@H](CC(N)=O)C(=O)N[C@@H](CC(N)=O)C(=O)N[C@@H](Cc1c[nH]cn1)C(=O)N[C@H](C(=O)N[C@@H](CCC(N)=O)C(=O)O)C(C)C)[C@@H](C)CC)[C@@H](C)CC [Ps-K18] (H-GLNALKKVFQGIHEAIKKINNHVQ-OH) | 16 µM (≈ 43.2 µg/mL) | 32 µM (≈ 86.4 µg/mL) | 16 µM (≈ 43.2 µg/mL) | 100 µM | 4 µM (≈ 10.8 µg/mL) | 4 µM (≈ 10.8 µg/mL) | 2 µM (≈ 5.4 µg/mL) | 2 µM (≈ 5.4 µg/mL) | 4 µM (≈ 10.8 µg/mL) | 2 µM (≈ 5.4 µg/mL) | 2 µM (≈ 5.4 µg/mL) | 4 µM (≈ 10.8 µg/mL) | 8 µM (≈ 21.6 µg/mL) | 4 µM (≈ 10.8 µg/mL) | 2 µM (≈ 5.4 µg/mL) | 8 µM (≈ 21.6 µg/mL) | 4 µM (≈ 10.8 µg/mL) | 2 µM (≈ 5.4 µg/mL) | 10.67 µM | 16 µM (≈ 43.2 µg/mL) | haemolysis at 100 μM [4]; 100: 0.5%; Average MIC, Gram-negative [21]: 2.5 µM
CC[C@H](C)[C@H](NC(=O)[C@H](C)NC(=O)[C@H](CCC(=O)O)NC(=O)[C@H](Cc1c[nH]cn1)NC(=O)[C@@H](NC(=O)[C@@H]1CCCN1C(=O)[C@H](CCC(N)=O)NC(=O)[C@H](Cc1ccccc1)NC(=O)[C@@H](NC(=O)[C@H](CCCCN)NC(=O)[C@H](CCCCN)NC(=O)[C@H](CC(C)C)NC(=O)[C@H](C)NC(=O)[C@H](CC(N)=O)NC(=O)[C@H](CC(C)C)NC(=O)CN)C(C)C)[C@@H](C)CC)C(=O)N[C@@H](CCCCN)C(=O)N[C@@H](CC(C)C)C(=O)N[C@H](C(=O)N[C@@H](CC(N)=O)C(=O)N[C@@H](CC(N)=O)C(=O)N[C@@H](Cc1c[nH]cn1)C(=O)N[C@H](C(=O)N[C@@H](CCC(N)=O)C(=O)O)C(C)C)[C@@H](C)CC [Ps-P] (H-GLNALKKVFQPIHEAIKLINNHVQ-OH) | 32 µM (≈ 87.2 µg/mL) | 32 µM (≈ 87.2 µg/mL) | 32 µM (≈ 87.2 µg/mL) | 400 µM | 8 µM (≈ 21.8 µg/mL) | 16 µM (≈ 43.6 µg/mL) | 16 µM (≈ 43.6 µg/mL) | 8 µM (≈ 21.8 µg/mL) | 8 µM (≈ 21.8 µg/mL) | 8 µM (≈ 21.8 µg/mL) | 8 µM (≈ 21.8 µg/mL) | 8 µM (≈ 21.8 µg/mL) | 32 µM (≈ 87.2 µg/mL) | 8 µM (≈ 21.8 µg/mL) | 16 µM (≈ 43.6 µg/mL) | 32 µM (≈ 87.2 µg/mL) | 8 µM (≈ 21.8 µg/mL) | 16 µM (≈ 43.6 µg/mL) | 32 µM | 32 µM (≈ 87.2 µg/mL) | haemolysis at 400 μM [4]; 400: 0.5%; Average MIC, Gram-negative [21]: 10 µM
